{"source": "patent US10214507B2", "about": "“Carbazole-containing amides, carbamates, and ureas as cryptochrome modulators” (Reset Therapeutics, Inc., priority 2014, dated 2019)", "key": {"[1]": {"tested_on": "core clock and gluconeogenic gene mRNAs in liver of C57Bl/6J DIO mice", "test": "24 hour gene expression study, liver mRNA by RT-qPCR, C57Bl/6J DIO mice", "format": "in vivo, mouse", "settings": "50 mg/kg BID PO", "from_the_text": "Male C57Bl/6J DIO mice were purchased at 17 weeks of age (The Jackson Laboratory, Sacramento, Calif.) and acclimated for a 2 week period before being used for the experiment. Overall group size was 15 per treatment, divided into 5 time-points to give a final group size of 3 mice.\nIn total, each mouse received 5 doses of compound over the course of the experiment. Mice were weighed and randomly assigned to each treatment based on weight the evening before the commencement of the study. Beginning on Day 3 at 3:00 PM, a group of animals from the vehicle and Compound 72-treated groups were euthanized using CO2 asphyxiation, 50 mg of liver, epididymal fat, and skeletal muscle, respectively, were excised and placed in tube containing 500 μl of RNALater. This procedure took place for the remainder of the time-point groups at their given harvest times. Plasma samples were also taken for each animal and frozen, to be used for later measurement of compound levels.\nE.Z.N.A.® HP Total RNA Isolation Kits (R6812-01 and the protocol described in the Manual, Revised 2010) were utilized to prepare and isolate RNA from the liver samples. To prepare the RNA samples, 10-30 mg of sample was removed from RNA-Later and placed in a 1.5 ml microfuge tube. GTC lysis buffer (700 μl) was added to the tissue, which was homogenized with a rotor-stator homogenizer (e.g. Tissue-Tearor, Model #985370 BioSpec Products with 4.5 mm probe, Cat. #985370-04), and then centrifuged at full speed (>13,000×g) for 5 minutes. The cleared supernatant was transferred by pipetting to a DNA Clearance Column Pre-inserted in a 2 mL Collection Tube. The assembled column was centrifuged at 13,000×g for 1 minute, and the flow-through was saved. An equal volume (700 μl) of 70% ethanol was added to the lysate and mixed. The sample was then applied to a HiBind RNA spin column placed into a 2 ml collection tube, which was centrifuged at 10,000×g for 60 seconds at room temperature. RNA Wash Buffer I (250 μl) was added by pipetting directly onto a new HiBind RNA column inserted in a 2 ml collection tube. The assembled column was centrifuged at 10,000×g for 60 seconds. The RNA column was placed into a new 2 ml collection tube. DNase I stock solution is pipetted (75 μl) directly onto the surface of the HiBind RNA resin in each column (Using DNAse Digestion with RNase Free DNase Set (E1091): for each HiBind RNA column, the DNase I stock solution was prepared as followed: E.Z.N.A.® DNase I Digestion Buffer 73.5μl, RNase Free DNase I (20 Kunitz/μl) 1.5 μl=Total Volume 75 μl.). The column with bound RNA was incubated at room temperature (25-30° C.) for 15 minutes. RNA Wash Buffer I (500 μl) was added to the column and placed on a bench top for 2 minutes. After centrifuging at 10,000×g for 60 seconds, discarding the flow-through, 500 μl of RNA Wash Buffer II was added and centrifuged at 10,000×g for 60 seconds. Another 500 μl of RNA Wash Buffer II was added and the column assembly was centrifuged at 10,000×g for 60 seconds. The column was centrifuged for 2 minutes at maximum speed to completely dry the HiBind matrix. The column was placed in a clean 1.5 ml microcentrifuge tube and 40-70 μl of molecular biology grade water is added. […]\nRediPlate 96 RiboGreen RNA Quantification Kit (Invitrogen) RediPlate standard curve was prepared by transferring 20 μl reconstituted RNA standard to a RediPlate well reconstituted in 180 μl RediPlate TE buffer. […]"}, "[2]": {"tested_on": "core clock gene mRNAs in livers of ICR mice", "test": "Four day study, liver clock gene mRNA by RT-qPCR, ICR mice", "format": "in vivo, mouse", "settings": "50 mg/kg PO BID 4 days", "protocol": "Male ICR mice (weighing 30-35 g), obtained from Charles River Laboratories (Hollister, CA), were used for the experiment following at least 3 days of acclimation. Mice were dosed with vehicle (WFI or 10% Kolliphor) or compound (50 mg/kg, dose volume 5 mL/kg, PO) for 4 days BID (twice a day), beginning in the afternoon of the first day. The last dose of compound or vehicle was administered on the morning of harvest. On the day of harvest (6 hours following the final dose), mice were euthanized by CO2 asphyxiation and 50 mg of liver tissue was excised and placed in a tube containing 500 μl of RNA later.\nE.Z.N.A.® HP Total RNA Isolation Kits (R6812-01 and the protocol described in the Manual, Revised 2010) were utilized to prepare and isolate RNA from the liver samples. To prepare the RNA samples, 10-30 mg of sample was removed from RNA-Later and placed in a 1.5 ml microfuge tube. GTC lysis buffer (700 μl) was added to the tissue, which was homogenized with a rotor-stator homogenizer (e.g. Tissue-Tearor, Model #985370 BioSpec Products with 4.5 mm probe, Cat. #985370-04), and then centrifuged at full speed (>13,000×g) for 5 minutes. The cleared supernatant was transferred by pipetting to a DNA Clearance Column Pre-inserted in a 2 mL Collection Tube. The assembled column was centrifuged at 13,000×g for 1 minute, and the flow-through was saved. An equal volume (700 μl) of 70% ethanol was added to the lysate and mixed. The sample was then applied to a HiBind RNA spin column placed into a 2 ml collection tube, which was centrifuged at 10,000×g for 60 seconds at room temperature. RNA Wash Buffer I (250 μl) was added by pipetting directly onto a new HiBind RNA column inserted in a 2 ml collection tube. The assembled column was centrifuged at 10,000×g for 60 seconds. The RNA column was placed into a new 2 ml collection tube. DNase I stock solution is pipetted (75 μl) directly onto the surface of the HiBind RNA resin in each column (Using DNAse Digestion with RNase Free DNase Set (E1091): for each HiBind RNA column, the DNase I stock solution was prepared as followed: E.Z.N.A.® DNase I Digestion Buffer 73.5μl, RNase Free DNase I (20 Kunitz/μl) 1.5 μl=Total Volume 75 μl.). The column with bound RNA was incubated at room temperature (25-30° C.) for 15 minutes. RNA Wash Buffer I (500 μl) was added to the column and placed on a bench top for 2 minutes. After centrifuging at 10,000×g for 60 seconds, discarding the flow-through, 500 μl of RNA Wash Buffer II was added and centrifuged at 10,000×g for 60 seconds. Another 500 μl of RNA Wash Buffer II was added and the column assembly was centrifuged at 10,000×g for 60 seconds. The column was centrifuged for 2 minutes at maximum speed to completely dry the HiBind matrix. The column was placed in a clean 1.5 ml microcentrifuge tube and 40-70 μl of molecular biology grade water is added. After sitting for 1 minute, the column was centrifuged for 2 minutes at maximum speed to elute the RNA. The isolated RNA was collected into the collection tube.\nRediPlate 96 RiboGreen RNA Quantification Kit (Invitrogen) RediPlate standard curve was prepared by transferring 20 μl reconstituted RNA standard to a RediPlate well reconstituted in 180 μl RediPlate TE buffer. For liver RNAs prepared from 30-100 mg of tissue using a kit similar to the Omega Bio-Tek HP Total RNA Kit and eluted in RNAse-free water in a volume of 50 μl (microliters), 5 μl of the total RNA is diluted in 195 μl of RediPlate TE buffer (1:40 dilution of RNA), mix. After transferring 5 μl to RediPlate well reconstituted in 195 μl TE buffer and incubating 10 min. at RT, Fluorescence Intensity of wells with standards and samples were read in a Tecan M200 with Excitation set at 480 nm and Emission set at 520 nm with the gain set to −70%. Alternatively, one can use the FlexStation 3 with Ex 488 nm and Em 525 nm and a Cutoff of 515 nm."}}, "data": [{"smiles": "O=C1NCCN1CC(O)Cn1c2ccc(F)cc2c2cc(F)ccc21", "note": "(centres unmarked) [Compound 72, 1-(3-(3,6-difluoro-9H-carbazol-9-yl)-2-hydroxypropyl)imidazolidin-2-one]", "values": [{"measurement": "Cry2 mRNA daytime peak in liver", "setting": "[1]", "value": "strongly attenuated"}, {"measurement": "Bmal1 mRNA in liver", "setting": "[1]; at ZT8 and 32 hours after original ZT0", "value": "substantially increased"}, {"measurement": "Cry1 mRNA in liver", "setting": "[1]; peak of expression in dark period", "value": "suppressed"}, {"measurement": "Per2 mRNA in liver over 24 hours", "setting": "[1]; vs vehicle", "value": "suppressed"}, {"measurement": "circadian pattern of mRNAs for gluconeogenic genes Pck1 and G6Pc", "setting": "[1]; liver, relative to vehicle", "value": "substantially altered"}, {"measurement": "Cry2 transcripts", "setting": "[2]; ICR mice liver", "value": "decrease"}, {"measurement": "increase in Bmal1 mRNA at ZT6", "setting": "[2]; ICR mice liver", "value": 4, "unit": "fold"}, {"measurement": "liver Per2 expression", "setting": "[2]; ICR mice, ZT6", "value": "suppression"}]}]}
